According to paper PMC3499368, “Evolution of Minimal Specificity and Promiscuity in Steroid Hormone Receptors” (PLoS Genetics, 2012):
Read-outs that look alike come from different tables or passages of the source.

How the values were obtained:
Type in all cases: cell-based
[1] = system: AncSR1-LBD; assay: luciferase reporter gene assay, Gal4-DBD fusion of AncSR1-LBD in CHO-K1 cells, activation; details: for activation (in words): fold activation at 10^-6 M, Fig. S5C
Excerpt: (§1) To experimentally test these hypotheses, we synthesized cDNAs for the AncSR1 and AncSR2 LBD protein sequences, expressed them as Gal4-DBD fusion constructs, and characterized their sensitivity to hormones using luciferase reporter gene assays.

[2] = system: AncSR2-LBD; assay: luciferase reporter gene assay, Gal4-DBD fusion of AncSR2-LBD in CHO-K1 cells, activation; details: for EC50: AncSR2, representative dose activation curves (Fig. S4) and Table S5 sections c-i; for Ratio H1/H2 of EC50, preference for 17-acetyl vs. 17-hydroxy group / Ratio H2/H1 of EC50, preference for 17-acetyl vs. 17-hydroxy group: AncSR2, Table S5 section d, pairs H1/H2: 13/6, 17/8, 15/9, 16/10, 19/23; for Ratio H1/H2 of EC50, preference for 3-hydroxy vs. 3-keto group / Ratio H2/H1 of EC50, preference for 3-hydroxy vs. 3-keto group: AncSR2, Table S5 section e, pairs H1/H2: 18/17, 9/6, 15/13; for Ratio H1/H2 of EC50, preference for 21-OH group vs. H group / Ratio H2/H1 of EC50, preference for 21-OH group vs. H group: AncSR2, Table S5 section f, pairs H1/H2: 1/6, 2/7; for Ratio H1/H2 of EC50, preference for 11-OH vs. H group / Ratio H2/H1 of EC50, preference for 11-OH vs. H group: AncSR2, Table S5 section g, pairs H1/H2: 1/3, 2/4
Excerpt: as §1, with “assays. […] It was unresponsive to a broad array of androgens, progestagens, and corticosteroids, as well as cholesterol (Figure 2A, Figure S3).” for “assays.”
For AncSR2, we identified all plausible alternate reconstructions (those with posterior probability >0.20 excluding biochemically similar K/R, D/E, S/T, and I/L differences) and introduced each alternate state individually into the AncSR2 background using the Quikchange Mutagenesis kit (Stratagene), verified clones by sequencing, and repeated the activation assays with each version of AncSR2 (Figure S6). The ML AncSR2 sequence reconstructed on the ML tree had high baseline activation in the absence of ligand; this phenotype is almost certainly an artifact, because constitutive baseline activity is not present in any of AncSR2's extant descendants; it is well-established that some amino acid replacements can cause nuclear receptors to become constitutive by marginally stabilizing the active conformation in the absence of hormone. […] The “constitutive” Leu79 state is weakly supported on the ML tree (PP = 0.59), and has no support (PP = 0.00) on the phylogeny that is most parsimonious in terms of gene duplications and losses; in contrast, the “non-constitutive” state Met79 has PP = 0.41 on the ML tree and PP = 1.00 on the rearranged gene duplication/loss tree (Figure S12, Table S8). The AncSR2 sequence used for all experiments reported in the text therefore contains state Met79. The other alternate reconstructions were then reintroduced into this AncSR2 sequence: none qualitatively changed the receptor's sensitivity to the various classes of steroid hormones, except for A171V, which conferred constitutive activity (Figure S6).

[3] = system: AncSR1_Alt1; assay: luciferase reporter assay, alternative reconstruction AncSR1_Alt1; details: for activation (in words): Alt1, fold activation at 10^-6 M, Fig. S5C
Excerpt: (§2) To determine the robustness of functional inferences to statistical uncertainty in the reconstruction of AncSR1 and AncSR2, we used two approaches. AncSR1 had too many ambiguously reconstructed sites to examine each such residue individually, so we computationally sampled from the posterior probability distribution of reconstructed amino acid states to generate a cloud of possible ancestral sequences, each harboring a large number of alternate states. Specifically, we generated 1,000,000 possible ancestral sequences by sampling from the posterior probability distribution of states at each site. […] We synthesized these five radically alternative ancestral reconstructions de novo and repeated the functional assays.
(§3) A) Distribution of posterior probabilities of 1 million protein sequences assembled by sampling amino acid states at each site from the posterior probability distribution for AncSR1 LBD. The ML reconstruction (AncSR1-ML) and the five alternative sequences with the highest posterior probability (Alt1-Alt5) in the 1 million samples are […]
(§4) The column height and error bars indicate the mean and SEM of three independent experiments, respectively. […]

[4] = system: AncSR1_Alt2; assay: luciferase reporter assay, alternative reconstruction AncSR1_Alt2; details: for activation (in words): Alt2, fold activation at 10^-6 M, Fig. S5C
Excerpt: as §2, §3, §4

[5] = system: AncSR1_Alt3; assay: luciferase reporter assay, alternative reconstruction AncSR1_Alt3; details: for activation (in words): Alt3, fold activation at 10^-6 M, Fig. S5C
Excerpt: as §2, §3, §4

[6] = system: AncSR1_Alt4; assay: luciferase reporter assay, alternative reconstruction AncSR1_Alt4; details: for activation (in words): Alt4, fold activation at 10^-6 M, Fig. S5C
Excerpt: as §2, §3, §4

[7] = system: AncSR1_Alt5; assay: luciferase reporter assay, alternative reconstruction AncSR1_Alt5; details: for activation (in words): Alt5, fold activation at 10^-6 M, Fig. S5C
Excerpt: as §2, §3, §4

[8] = AncSR1, representative dose activation curves (Fig. S3) and Table S5 section b
[9] = AncSR2, Table S5 section i, pairs H1/H2: 8/6, 17/13, 18/15, listed as given under Hormone 1
[10] = listed as given under Hormone 1

CC(=O)C1CCC2C3CCC4=CC(=O)CCC4C3CCC12C (centres unmarked) [19-norprogesterone]
Ratio H2/H1 of EC50, preference for aromatized A-ring ([1]; AncSR1, Table S5 section b, pairs H1/H2: 18/19, 22/20, 8/23, listed as given under Hormone 1): 0.02 | EC50 [1, 8]: > 10 µM | Ratio H1/H2 of EC50, preference for 19-H vs. 19-methyl group [2, 9]: 0.29 | Ratio H2/H1 of EC50, preference for 19-H vs. 19-methyl group [2, 9]: 3.44 | EC50 [2]: 0.0016 µM

C[C@]12CC[C@@H]3c4ccc(O)cc4CC[C@H]3[C@@H]1C[C@@H](O)[C@@H]2O [estriol]
EC50 [1, 8]: 0.97 µM | EC50 ([1]; AncSR1-ML, Fig. S5B): 0.974 µM | EC50 ([3]; Alt1, Fig. S5B): 0.322 µM | EC50 ([4]; Alt2, Fig. S5B): 2.22 µM | EC50 ([5]; Alt3, Fig. S5B): 0.149 µM | EC50 ([6]; Alt4, Fig. S5B): 2.01 µM | EC50 ([7]; Alt5, Fig. S5B): 0.39 µM

C[C@]12CC[C@H]3[C@@H](CCC4=C[C@@H](O)CC[C@@]43C)[C@@H]1CC[C@@H]2O [4-androstenediol]
Ratio H1/H2 of EC50, preference for 17-acetyl vs. 17-hydroxy group [2, 10]: 119.09 | Ratio H2/H1 of EC50, preference for 17-acetyl vs. 17-hydroxy group [2, 10]: 0.01 | Ratio H1/H2 of EC50, preference for 3-hydroxy vs. 3-keto group [2, 10]: 2.26 | Ratio H2/H1 of EC50, preference for 3-hydroxy vs. 3-keto group [2, 10]: 0.44 | EC50 [2]: 0.262 µM

CC(=O)[C@@]1(O)CC[C@H]2[C@@H]3CCC4=CC(=O)CC[C@]4(C)[C@H]3CC[C@@]21C [17α-hydroxyprogesterone]
EC50 ([2]; read-out: EC50): 0.019 µM

C[C@H](O)[C@H]1CC[C@H]2[C@@H]3CCC4=CC(=O)CC[C@]4(C)[C@H]3CC[C@]12C [20α hydroxyprogesterone]
EC50 ([2]; read-out: EC50): 0.019 µM

CC(=O)[C@H]1CC[C@H]2[C@@H]3CCC4=CC(=O)CC[C@]4(C)[C@H]3CC[C@]12C [progesterone]
activation (in words) ([1]; AncSR1-ML): none are activated | EC50 ([2]; read-out: EC50): 0.0055 µM | activation (in words) [3]: none are activated | activation (in words) [4]: none are activated | activation (in words) [5]: none are activated | activation (in words) [6]: none are activated | activation (in words) [7]: none are activated

C[C@@H](O)[C@H]1CC[C@H]2[C@@H]3CCC4=CC(=O)CC[C@]4(C)[C@H]3CC[C@]12C [20β hydroxyprogesterone]
EC50 ([2]; read-out: EC50): 0.01 µM

C[C@]12CC[C@H]3[C@@H](CC=C4C[C@@H](O)CC[C@@]43C)[C@@H]1CC[C@@H]2O [5-androstenediol]
Ratio H1/H2 of EC50, preference for 17-acetyl vs. 17-hydroxy group [2, 10]: 21.84 | Ratio H2/H1 of EC50, preference for 17-acetyl vs. 17-hydroxy group [2, 10]: 0.05 | EC50 [2]: 0.083 µM

CC(=O)C1CCC2C3CCC4=CC(O)CCC4(C)C3CCC12C (centres unmarked) [4-pregnenolone]
Ratio H1/H2 of EC50, preference for 3-hydroxy vs. 3-keto group [2, 10]: 0.40 | Ratio H2/H1 of EC50, preference for 3-hydroxy vs. 3-keto group [2, 10]: 2.50 | EC50 [2]: 0.0022 µM

11-deoxycorticosterone
activation (in words) ([1]; AncSR1-ML): none are activated | EC80 ([2]; AncSR2, 11-deoxycorticosterone concentration used in inhibition assay): 0.0017 µM | Ratio H1/H2 of EC50, preference for 21-OH group vs. H group [2, 10]: 0.08 | Ratio H2/H1 of EC50, preference for 21-OH group vs. H group [2, 10]: 13.10 | Ratio H1/H2 of EC50, preference for 11-OH vs. H group [2, 10]: 1.35 | Ratio H2/H1 of EC50, preference for 11-OH vs. H group [2, 10]: 0.74 | EC50 ([2]; read-out: EC50): 0.00042 µM | activation (in words) [3]: none are activated | activation (in words) [4]: none are activated | activation (in words) [5]: none are activated | activation (in words) [6]: none are activated | activation (in words) [7]: none are activated

C[C@]12CCC(=O)C=C1CC[C@@H]1[C@@H]2CC[C@@]2(C)[C@H]1CC[C@]2(O)C(=O)CO [11-deoxycortisol]
Ratio H1/H2 of EC50, preference for 21-OH group vs. H group [2, 10]: 0.08 | Ratio H2/H1 of EC50, preference for 21-OH group vs. H group [2, 10]: 12.67 | Ratio H1/H2 of EC50, preference for 11-OH vs. H group [2, 10]: 0.15 | Ratio H2/H1 of EC50, preference for 11-OH vs. H group [2, 10]: 6.53 | EC50 ([2]; read-out: EC50): 0.0015 µM
